We go through 18 compounds from patent US20080255192A1, “Methods and Compositions for Selectin Inhibition” (Wyeth, priority 2007, published 2008).

Molecules are shown by their SMILES.

This experiment has as its target T1, P-selectin/PSGL-1 interaction (Homo sapiens, UniProt P16109).
T1 construct: comprised of the lectin and epidermal growth factor-like (EGF) domains expressed in CHO cells; made in house; host or cells: CHO cells (P-LE)
T1 sequence (P16109 42-198): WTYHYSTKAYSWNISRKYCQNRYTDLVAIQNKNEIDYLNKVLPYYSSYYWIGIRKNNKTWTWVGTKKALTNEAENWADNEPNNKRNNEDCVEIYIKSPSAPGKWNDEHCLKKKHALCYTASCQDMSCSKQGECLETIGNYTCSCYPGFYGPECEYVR
The experiment is described as follows: Biacore P-Selectin/PSGL-1 Inhibition Assay (surface plasmon resonance). The class given is binding. The settings on record: 250 uM test compound, 500 nM P.LE, immobilized PSGL-1 19ek, 10% DMSO, pH 7.4. In a few lines:
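Biotinylated monomeric human PSGL-1 "19ek" on streptavidin chip (600–700 RU); compounds preincubated 1 h, then mixed with 500 nM P-LE (lectin-EGF, CHO-expressed) at 250 or 500 μM compound, 10% DMSO, HEPES buffer with 1 mM CaCl2/MgCl2, pH 7.4. SPR at 25 °C; percent binding inhibition from double-referenced signals.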
Turning to `Cc1ccc2c(C(=O)O)c(O)c(C(C)(C)c3ccc(Cl)cc3)nc2c1C` [Compound 121, 2-(2-(4-Chlorophenyl)propan-2-yl)-3-hydroxy-7,8-dimethylquinoline-4-carboxylic acid], the inhibition (usually the share of the control response that was lost under treatment) at 250 µM was 56%.
The result for `CC(C)(c1ccc(Cl)cc1)c1nc2c(C(O)(C(F)(F)F)C(F)(F)F)cccc2c(C(=O)O)c1O` [Compound 122, 2-(2-(4-chlorophenyl)propan-2-yl)-8-(1,1,1,3,3,3-hexafluoro-2-hydroxypropan-2-yl)-3-hydroxyquinoline-4-carboxylic acid] reads at most 10%; that for `CC(c1ccccc1)c1nc2c(C(F)(F)F)cccc2c(C(=O)O)c1O` (stereo not drawn) [Compound 123, 3-hydroxy-2-(1-phenylethyl)-8-(trifluoromethyl)quinoline-4-carboxylic acid], 49%.
In the case of `CC(c1ccc(Cl)cc1)c1nc2c3c(ccc2c(C(=O)O)c1O)CCCC3` (stereo not drawn) [Compound 124, 2-(1-(4-chlorophenyl)ethyl)-3-hydroxy-7,8,9,10-tetrahydrobenzo[h]quinoline-4-carboxylic acid], the inhibition at 250 µM is at most 10%.
Compound `CC(c1ccccc1)c1nc2c3c(ccc2c(C(=O)O)c1O)CCCC3` (stereo not drawn) [Compound 125, 3-Hydroxy-2-(1-phenylethyl)-7,8,9,10-tetrahydrobenzo[h]quinoline-4-carboxylic acid] displayed an inhibition at 250 µM of 90%.
Then `CCC(c1ccccc1)c1nc2c(C(F)(F)F)cccc2c(C(=O)O)c1O` (stereo not drawn) [Compound 126, 3-Hydroxy-2-(1-phenylpropyl)-8-(trifluoromethyl)quinoline-4-carboxylic acid], with 61%.
In turn, `CCC(c1ccccc1)c1nc2c(C(C)C)cccc2c(C(=O)O)c1O` (stereo not drawn) [Compound 127, 3-Hydroxy-8-isopropyl-2-(1-phenylpropyl)quinoline-4-carboxylic acid] gave an inhibition at 250 µM of 65%.
In turn, `CCC(c1ccccc1)c1nc2c(C)c(C)ccc2c(C(=O)O)c1O` (stereo not drawn) [Compound 128, 3-Hydroxy-7,8-dimethyl-2-(1-phenylpropyl)quinoline-4-carboxylic acid] gave an inhibition at 250 µM of 64%.
Take `CC(C)C(c1ccccc1)c1nc2c(C(F)(F)F)cccc2c(C(=O)O)c1O` (stereo not drawn) [Compound 129, 3-Hydroxy-2-(2-methyl-1-phenylpropyl)-8-(trifluoromethyl)quinoline-4-carboxylic acid]: at 250 µM the inhibition was 60%.
On to `CC(C)c1cccc2c(C(=O)O)c(O)c(C(c3ccccc3)C(C)C)nc12` (stereo not drawn) [Compound 130, 3-Hydroxy-8-isopropyl-2-(2-methyl-1-phenylpropyl)quinoline-4-carboxylic acid], for which the inhibition at 250 µM is 40%.
As to `Cc1ccc2c(C(=O)O)c(O)c(C(c3ccccc3)C(C)C)nc2c1C` (stereo not drawn) [Compound 131, 3-Hydroxy-7,8-dimethyl-2-(2-methyl-1-phenylpropyl)quinoline-4-carboxylic acid], testing at 250 µM gave an inhibition of 90%.
Turning to `CC(Cc1ccccc1)c1nc2c(C(F)(F)F)cccc2c(C(=O)O)c1O` (stereo not drawn) [Compound 132, 3-Hydroxy-2-(1-Phenylpropan-2-yl)-8-(trifluoromethyl)quinoline-4-carboxylic acid], at 250 µM the inhibition was 49%.
Then `CC(C)c1cccc2c(C(=O)O)c(O)c(C(C)Cc3ccccc3)nc12` (stereo not drawn) [Compound 133, 3-Hydroxy-8-isopropyl-2-(1-phenylpropan-2-yl)quinoline-4-carboxylic acid], with 64%.
`Cc1ccc2c(C(=O)O)c(O)c(C(C)Cc3ccccc3)nc2c1C` (stereo not drawn) [Compound 134, 3-Hydroxy-7,8-dimethyl-2-(1-phenylpropan-2-yl)quinoline-4-carboxylic acid] had an inhibition at 250 µM of 49%.
Then `CC(Cc1nc2c(C(F)(F)F)cccc2c(C(=O)O)c1O)c1ccccc1` (stereo not drawn) [Compound 135, 3-Hydroxy-2-(2-phenylpropyl)-8-(trifluoromethyl)quinoline-4-carboxylic acid], with 46%; and `CC(C)c1cccc2c(C(=O)O)c(O)c(CC(C)c3ccccc3)nc12` (stereo not drawn) [Compound 136, 3-Hydroxy-8-isopropyl-2-(2-phenylpropyl)quinoline-4-carboxylic acid], with 64%; and `Cc1ccc2c(C(=O)O)c(O)c(CC(C)c3ccccc3)nc2c1C` (stereo not drawn) [Compound 137, 3-Hydroxy-7,8-dimethyl-2-(2-phenylpropyl)quinoline-4-carboxylic acid], with 31%.
As for `O=C(O)c1c(OC(=O)N2CCOCC2)c(Cc2ccc(Cl)cc2)nc2c3c(ccc12)CCCC3` [Compound 138, 2-(4-Chlorobenzyl)-3-[(morpholin-4-ylcarbonyl)oxy]-7,8,9,10-tetrahydrobenzo[h]quinoline-4-carboxylic acid], the inhibition at 250 µM was 16%.
